How the values were obtained:
[1] = elimination of GA metabolites in SD rats intravenously injected with GA; type: in vivo, Sprague-Dawley (SD) rats; conditions: female SD rats
Description: Briefly, after diluting serum and urine samples with water to obtain suitable concentrations, they were digested with subtilisin (0.91 U/ml), followed by the addition of astragaloside IV (used as an internal standard; Fujifilm Wako Pure Chemicals, Osaka, Japan), and deproteinized using 80% ethanol. […] The transitions (precursor to daughter) monitored and retention times were as follows: ESI(+), 743.4 to 567.5 m/z (35 and 25 V for cone voltage and collision energy, respectively) for compound 1 (8.1 min); ESI(–), 565.5 to 96.5 m/z (80 and 60 V) for 2 (9.6 min); ESI(–), 549.5 to 96.5 m/z (80 and 60 V) for 3 (15.4 min); ESI(+), 727.3 to 551.2 m/z (30 and 25 V) for 4 (11.3 min); ESI(+), 647.6 to 453.6 m/z (40 and 20 V) for 3MGA (15.0 min); ESI(+), 471.3 to 91.0 m/z (40 and 20 V) for GA (13.4 min); ESI(+), 823.5 to 453.6 m/z (30 and 20 V) for GL (18.4 min); and ESI(+), 785.4 to 143.0 m/z (30 and 20 V) for astragaloside IV (3.0 min). Linear regressions over the concentration range of 2 nM to 2 µM for each compound were examined using the peak-area ratio of the compounds to their internal standards and the least-squares method (r ^ 2 > 0.98). The detection limits for 1, GL, and GA were 6.4 nM, and those for 2, 3, and 4, and 3MGA were 3.2 nM.
FIGURE 6 Elimination of glycyrrhizin (GL) metabolites into bile in Sprague-Dawley (SD) rats. Female SD rats (10 week-old) were anesthetized using intraperitoneal injection of urethane (1 g/kg), and biliary tracts were cannulated. […] Concentrations of GA metabolites were measured using liquid chromatography-tandem mass spectrometry (LC-MS/MS) and accumulated elimination of GA-metabolites are means ± standard error (S.E: n = 3).

anti-3MGA-mAb = test: competitive ELISA using anti-3MGA-mAb; type: binding; conditions: competitive ELISA in aqueous solution, 3MGA calibrated to 100%
Procedure: ELISA System Using anti-3MGA-mAb
An ELISA system to measure the cross-reactivity of compounds 3 and 4 by using 3MGA-HSA-conjugate and anti-3MGA-mAb was used according to the protocol in our previous study ([Ishiuchi et al., 2019]). To measure the concentration of 3 in human serum samples using the system ELISA, 3 was dissolved in normal human serum (Sigma) to prepare standard solutions (16 nM–2.0 µM) and the samples or standard solutions (each 10 µl) and ethanol (40 µl) were well mixed and centrifuged (1.2 × 10^4 × g for 7 min). The supernatant was dried up under nitrogen flow at 40°C overnight, and the residue was dissolved in Can Get Signal® Solution 1 (Toyobo Co., Ltd: Osaka, Japan) (50 µl). […] When the observed values were more than 400 nM, the deproteinized serum samples were further diluted with Can Get Signal® Solution 1 for two or four times and analyzed again to observe values from 15.6 to 400 nM.
FIGURE 4 Development of enzyme-linked immunosorbent assay (ELISA) system to measure concentrations of 3 in human serum samples using anti-18β-glycyrrhetyl-3-O-glucuronide (3MGA)-monoclonal antibody (mAb). […] Standard lines between absorbance and concentrations of compound 3 are shown (D) Accuracy of ELISA system in measuring concentrations of 3 in human serum samples using anti-3MGA-mAb. Human serum samples were deproteinized, and concentration of 3 was measured using ELISA system. […]

CC1(C)[C@@H](OS(=O)(=O)O)CC[C@]2(C)[C@H]3C(=O)C=C4[C@@H]5C[C@@](C)(C(=O)O[C@@H]6O[C@H](C(=O)O)[C@@H](O)[C@H](O)[C@H]6O)CC[C@]5(C)CC[C@@]4(C)[C@]3(C)CC[C@@H]12 [Compound 4, 18β-glycyrrhetyl-3-O-sulfate-30-O-glucuronide]
accumulation in the bile ([1]; GA 0.2 mg/kg iv, bile collected for 4 h): the highest | accumulative elimination in faeces ([1]; GA iv, faeces collected 24 h after injection): below detectable levels | cross-reactivity to anti-3MGA-mAb (anti-3MGA-mAb): 40%

Reference: article PMC8165744, “Identification of an Alternative Glycyrrhizin Metabolite Causing Liquorice-Induced Pseudohyperaldosteronism and the Development of ELISA System to Detect the Predictive Biomarker” (Frontiers in Pharmacology, 2021)
